What follows are compounds tested on HBV (assay: HBV-DNA antiviral assay using HepG2.117 cells (intracellular HBV DNA by qPCR)). Conditions: HBV DNA inhibition, 3 days incubation, 2% DMSO.
Assay type: cell-based, genotype D HBV
Procedure, shortened: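 HepG2.117 cells (stable genotype D HBV, Tet-off) seeded without doxycycline, treated next day with 9-point 4-fold dilutions in 2% DMSO for 3 days at 37° C. Intracellular HBV DNA quantified by qPCR against a standard curve; viability by CellTiter-Glo ATP. EC50, EC90, CC50 from variable-slope dose-response fits versus DMSO control.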

SMILES | EC50 [nM]
Cn1cnnc1-c1ccc(-n2c(=O)c3c(n4ncc(Cc5ccccc5)c24)CN(C(=O)c2ccc(Br)c(Cl)c2)CC3)cc1 [Compound 9, 5-benzyl-12-(4-bromo-3-chloro-benzoyl)-7-[4-(4-methyl-1,2,4-triazol-3-yl)phenyl]-2,3,7,12-tetrazatricyclo[7.4.0.0^2,6]trideca-1(9),3,5-trien-8-one] | < 50
CC(C)Cc1cnn2c3c(c(=O)n(-c4ccc(-c5nncn5C)cc4)c12)C[C@H](C)N(C(=O)c1ccc(Br)c(Cl)c1)C3 [Compound 60b, (11S)-12-(4-bromo-3-chlorobenzoyl)-11-methyl-7-[4-(4-methyl-1,2,4-triazol-3-yl)phenyl]-5-(2-methylpropyl)-2,3,7,12-tetraazatricyclo[7.4.0.0^{2,6}]trideca-1(9),3,5-trien-8-one] | 50 to 500

Same assay, conditions: Hepatitis B virus, 72 h, HBV DNA inhibition, 3 days incubation, 2% DMSO

SMILES | EC50 [nM]
CCC[C@@H]1Cc2c(n3ncc(Cc4ccccc4)c3n(-c3ccc4c(NC)n[nH]c4c3)c2=O)CN1C(=O)c1ccc(Br)c(C(F)(F)F)c1 (stereo in doubt) [Compound 88a, rac-(11R)-5-benzyl-12-[4-bromo-3-(trifluoromethyl)benzoyl]-7-[3-(methylamino)-1H-indazol-6-yl]-11-propyl-2,3,7,12-tetrazatricyclo[7.4.0.0^2,6]trideca-1(9),3,5-trien-8-one] | < 50
Cc1nnc(-c2ccc(-n3c(=O)c4c(n5ncc(CC(C)C)c35)CN(C(=O)c3ccc(Br)c(C(F)(F)F)c3)[C@H](C)C4)cc2)[nH]1 (stereo in doubt) [Compound 59a, rac-(11R)-12-[4-bromo-3-(trifluoromethyl)benzoyl]-5-isobutyl-11-methyl-7-[4-(5-methyl-4H-1,2,4-triazol-3-yl)phenyl]-2,3,7,12-tetrazatricyclo[7.4.0.0^2,6]trideca-1(9),3,5-trien-8-one] | < 50
C[C@H]1Cc2c(n3ncc(CC4CC4)c3n(-c3ccc(-c4nc(=O)on4C)cc3)c2=O)CN1C(=O)c1ccc(Br)c(C(F)(F)F)c1 (stereo in doubt) [Compound 93b, 2-methyl-3-[4-[rac-(11S)-12-[4-bromo-3-(trifluoromethyl)benzoyl]-5-(cyclopropylmethyl)-11-methyl-8-oxo-2,3,7,12-tetrazatricyclo[7.4.0.0^2,6]trideca-1(9),3,5-trien-7-yl]phenyl]-1,2,4-oxadiazol-5-one] | < 50
CNC(=O)c1cnc(-n2c(=O)c3c(n4ncc(CC(C)C)c24)CN(C(=O)c2ccc(Br)c(C(F)(F)F)c2)[C@@H](C)C3)nc1 (stereo in doubt) [Compound 85b, N-methyl-2-[rac-(11S)-12-[4-bromo-3-(trifluoromethyl)benzoyl]-5-isobutyl-11-methyl-8-oxo-2,3,7,12-tetrazatricyclo[7.4.0.0^2,6]trideca-1(9),3,5-trien-7-yl]pyrimidine-5-carboxamide] | < 50
Cc1ccn(-c2ccc(-n3c(=O)c4c(n5ncc(CC(C)C)c35)CN(C(=O)c3ccc(Br)c(C(F)(F)F)c3)[C@H](C)C4)cc2)n1 (stereo in doubt) [Compound 100a, rac-(11R)-12-[4-bromo-3-(trifluoromethyl)benzoyl]-5-isobutyl-11-methyl-7-[4-(3-methylpyrazol-1-yl)phenyl]-2,3,7,12-tetrazatricyclo[7.4.0.0^2,6]trideca-1(9),3,5-trien-8-one] | < 50
CNc1n[nH]c2cc(-n3c(=O)c4c(n5ncc(CC(C)C)c35)CN(C(=O)c3ccc(Br)c(C(F)(F)F)c3)[C@@H](C)C4)ccc12 (stereo in doubt) [Compound 61b, rac-(11S)-12-[4-bromo-3-(trifluoromethyl)benzoyl]-5-isobutyl-11-methyl-7-[3-(methylamino)-1H-indazol-6-yl]-2,3,7,12-tetrazatricyclo[7.4.0.0^2,6]trideca-1(9),3,5-trien-8-one] | 50 to 500
Cn1cncc1-c1ccc(-n2c(=O)c3c(n4ncc(Cc5ccccc5)c24)CN(C(=O)c2ccc(Br)c(C(F)(F)F)c2)CC3)cc1 [Compound 33, 5-benzyl-12-[4-bromo-3-(trifluoromethyl)benzoyl]-7-[4-(3-methylimidazol-4-yl)phenyl]-2,3,7,12-tetrazatricyclo[7.4.0.0^2,6]trideca-1(9),3,5-trien-8-one] | < 50
Cc1nnc(-c2ccc(-n3c(=O)c4c(n5ncc(Cc6ccccc6)c35)CN(C(=O)c3ccc(Br)c(Cl)c3)CC4)cc2)[nH]1 [Compound 1, 5-benzyl-12-(4-bromo-3-chloro-benzoyl)-7-[4-(5-methyl-4H-1,2,4-triazol-3-yl)phenyl]-2,3,7,12-tetrazatricyclo[7.4.0.0^2,6]trideca-1(9),3,5-trien-8-one] | < 50
CNC(=O)c1ccc(-n2c(=O)c3c(n4ncc(CC5CC(F)(F)C5)c24)CN(C(=O)c2ccc(Br)c(Cl)c2)CC3)cc1 [Compound 19, 4-[12-(4-bromo-3-chloro-benzoyl)-5-[(3,3-difluorocyclobutyl)methyl]-8-oxo-2,3,7,12-tetrazatricyclo[7.4.0.0^2,6]trideca-1(9),3,5-trien-7-yl]-N-methyl-benzamide] | 50 to 500
Cc1nn[nH]c1-c1ccc(-n2c(=O)c3c(n4ncc(CC5CC5)c24)CN(C(=O)c2ccc(Br)c(C(F)(F)F)c2)[C@@H](C)C3)cc1 (stereo in doubt) [Compound 75b, rac-(11S)-12-[4-bromo-3-(trifluoromethyl)benzoyl]-5-(cyclopropylmethyl)-11-methyl-7-[4-(4-methyl-1H-triazol-5-yl)phenyl]-2,3,7,12-tetrazatricyclo[7.4.0.0^2,6]trideca-1(9),3,5-trien-8-one] | 50 to 500
COP(=O)(O)OCN(C)C(=O)c1ccc(-n2c(=O)c3c(n4ncc(CC5CC5)c24)CN(C(=O)c2ccc(Br)c(C(F)(F)F)c2)[C@@H](C)C3)cc1 (racemic) [Compound 107, Methyl [methyl-[4-[rac-(11S)-12-[4-bromo-3-(trifluoromethyl)benzoyl]-5-(cyclopropylmethyl)-11-methyl-8-oxo-2,3,7,12-tetrazatricyclo[7.4.0.0^2,6]trideca-1(9),3,5-trien-7-yl]benzoyl]amino]methyl Hydrogen Phosphate] | > 5000
COP(=O)(OC)OCN(C)C(=O)c1ccc(-n2c(=O)c3c(n4ncc(CC5CC5)c24)CN(C(=O)c2ccc(Br)c(C(F)(F)F)c2)[C@@H](C)C3)cc1 (racemic) [Compound 103, Dimethyl [methyl-[4-[rac-(11S)-12-[4-bromo-3-(trifluoromethyl)benzoyl]-5-(cyclopropylmethyl)-11-methyl-8-oxo-2,3,7,12-tetrazatricyclo[7.4.0.0^2,6]trideca-1(9),3,5-trien-7-yl]benzoyl]amino]methyl Phosphate] | > 5000
CNC(=O)c1ccc(-n2c(=O)c3c(n4ncc(Cc5ccsc5)c24)CN(C(=O)c2ccc(Br)c(Cl)c2)CC3)cc1 [Compound 18, 4-[12-(4-bromo-3-chloro-benzoyl)-8-oxo-5-(3-thienylmethyl)-2,3,7,12-tetrazatricyclo[7.4.0.0^2,6]trideca-1(9),3,5-trien-7-yl]-N-methyl-benzamide] | < 50
Cc1nn[nH]c1-c1ccc(-n2c(=O)c3c(n4ncc(Cc5ccccc5)c24)CN(C(=O)c2ccc(Br)c(C(F)(F)F)c2)[C@H](C)C3)cc1 (stereo in doubt) [Compound 80a, rac-(11R)-5-benzyl-12-[4-bromo-3-(trifluoromethyl)benzoyl]-11-methyl-7-[4-(4-methyl-1H-triazol-5-yl)phenyl]-2,3,7,12-tetrazatricyclo[7.4.0.0^2,6]trideca-1(9),3,5-trien-8-one] | < 50
Cc1nn[nH]c1-c1ccc(-n2c(=O)c3c(n4ncc(CC(C)C)c24)CN(C(=O)c2ccc(Br)c(Cl)c2)[C@@H](C)C3)cc1 (stereo in doubt) [Compound 64b, rac-(11S)-12-(4-bromo-3-chloro-benzoyl)-5-isobutyl-11-methyl-7-[4-(4-methyl-1H-triazol-5-yl)phenyl]-2,3,7,12-tetrazatricyclo[7.4.0.0^2,6]trideca-1(9),3,5-trien-8-one] | 50 to 500
Cc1nnc(-c2ccc(-n3c(=O)c4c(n5ncc(Cc6ccccc6)c35)CN(C(=O)c3ccc(Br)c(C(F)(F)F)c3)CC4)cc2)n1C [Compound 32, 5-benzyl-12-[4-bromo-3-(trifluoromethyl)benzoyl]-7-[4-(4,5-dimethyl-1,2,4-triazol-3-yl)phenyl]-2,3,7,12-tetrazatricyclo[7.4.0.0^2,6]trideca-1(9),3,5-trien-8-one] | < 50
CCC[C@H]1Cc2c(n3ncc(Cc4ccccc4)c3n(-c3ccc4c(NC)n[nH]c4c3)c2=O)CN1C(=O)c1ccc(Br)c(C(F)(F)F)c1 (stereo in doubt) [Compound 88b, rac-(11S)-5-benzyl-12-[4-bromo-3-(trifluoromethyl)benzoyl]-7-[3-(methylamino)-1H-indazol-6-yl]-11-propyl-2,3,7,12-tetrazatricyclo[7.4.0.0^2,6]trideca-1(9),3,5-trien-8-one] | < 50
C[C@H]1Cc2c(n3ncc(CC4CCC4)c3n(-c3ccc(-c4nncn4C)cc3)c2=O)CN1C(=O)c1ccc(Br)c(C(F)(F)F)c1 (stereo in doubt) [Compound 45b, rac-(11S)-12-[4-bromo-3-(trifluoromethyl)benzoyl]-5-(cyclobutylmethyl)-11-methyl-7-[4-(4-methyl-1,2,4-triazol-3-yl)phenyl]-2,3,7,12-tetrazatricyclo[7.4.0.0^2,6]trideca-1(9),3,5-trien-8-one] | 50 to 500
Cc1nnc(-c2ccc(-n3c(=O)c4c(n5ncc(Cc6ccccc6)c35)CN(C(=O)c3ccc(Br)c(Cl)c3)[C@H](C)C4)cc2)[nH]1 (stereo in doubt) [Compound 53a, rac-(11R)-5-benzyl-12-(4-bromo-3-chloro-benzoyl)-11-methyl-7-[4-(5-methyl-4H-1,2,4-triazol-3-yl)phenyl]-2,3,7,12-tetrazatricyclo[7.4.0.0^2,6]trideca-1(9),3,5-trien-8-one] | < 50

Reference: patent US11820773B2, “Tricyclic compounds” (ALIGOS THERAPEUTICS, INC., priority 2020, dated 2023)
